In patent publication EP0369083A1, “Cardioprotective tocopherol analogs” (MERRELL DOW PHARMACEUTICALS INC., priority 1988, dated 1990):
Values joined by “and” are separate entries in the source; they are usually repeats but may differ in a detail not shown here. Equal values may be shown once.

How the values were obtained:
[1] = Free radical scavenging: inhibition of autoxidation of 1-epinephrine (Misra and Fridovich assay); format: biochemical; settings: 1-epinephrine 1 x 10⁻⁴M, EDTA 1 x 10⁻⁴M, 30°C, absorbance at 480 nm; read-out: 50% inhibition of the autoxidation rate (ID₅₀)
Protocol: 2-(3,4-dihydro-6-hydroxy-2,5,7,8-tetramethyl-2H-1-benzopyran-2-yl)ethyl-N,N,N-trimethylammonium bromide, described in Example 1, was evaluated for its ability to reduce superoxide radicals in an assay described by H.P. Misra and J. Fridovich, 1972, J. Biol. Chem. 247, 3170-5. In this assay, the rate of autoxidation of 1-epinephrine (1 x 10⁻⁴M) in the presence of EDTA (1 x 10⁻⁴M) at 30°C is followed spectrophotometrically following the increase of absorbance at 480 mn. […] For comparison, 3,4-dihydro-6-hydroxy-2,5,7,8-tetramethyl-2H-1-benzopyran -2-carboxylic acid (CAS 53188-07-1) gave ID₅₀ = 105 ± 8 µM and d,1-penicillamine (CAS 52-67-5) ID₅₀ = 73 µM in parallel experiments. Misra and Fridovich report that bovine superoxide dismutase gave 50% inhibition at […].

[2] = system: ligation-induced infarcted and reperfused rats; assay: Cardioprotective effects: coronary ligation 60 min and reperfusion 30 min, infarcted area versus area at risk; format: in vivo
Protocol: 2-(3,4-Dihydro-2,5,7,8-tetramethyl-6-methyl-carbonyloxy-2H-1-benzopyran-2-yl) ethyl-N,N,N-trimethyl-ammonium bromide was evaluated in ligation-induced infarcted and reperfused rats as follows. One of two groups of rats was infused intravenously with a solution of test compound in saline at a rate of 2.3 ml/h (10 mg/kg/h). The control group was infused with saline at the same rate. After 10 min of drug infusion, coronary arteries were ligated surgically for 60 min, ligation was loosened to allow reperfusion for 30 min. The ligation was retied and a dye (Evans Blue) was injected. The animals were sacrificed and the heart ventricles were removed and weighed. The unstained tissue was dissected and weighed; this represents the "area at risk", i.e. the area that was deprived of blood supply by ligation. To determine the infarcted area, the tissue was incubated with 2,3,5-triphenyltetrazolium chloride. Infarcted tissue became light colored and could be dissected and weighed. Thus, for each rat that survived the ligation a measurement of "area at risk" and of "infarcted area" was obtained and the ratio was calculated as given in Tables II and III.

[3] = Affinity for cardiac tissue: radioactivity in heart and blood after intravenous 14C-labelled compound; format: in vivo; design: ng equiv/g heart: unit not given here; settings: rats, 0.91 mg base/kg intravenous
Protocol: Following the procedure described in Example 1, but using ¹⁴C-methyl p-toluenesulfonate in place of "cold material", ¹⁴C-labelled 2-(3,4-dihydro-2,5,7,8-tetramethyl-6-methylcarbonyloxy-2H-1-benzopyranan-2-yl)ethyl-N,N,N-tri-¹⁴C-methylammonium p-toluenesulfonate was synthesized. The preparation was diluted with "cold material" to 11.74 µCi/mg base.
24 rats were given 0.91 mg base/kg by intravenous route (by canula into the jugular vein). The animals were sacrificed in groups of 3 at the time periods indicated in Table I. Immediately before sacrifice a 0.5 ml blood sample was taken from an indwelling catheter in the carotid artery. The hearts were removed, blotted and weighed. The samples of tissue and blood were solubiized with Luma Solve (a quaternary ammonium hydroxide preparation) and radioactivity was determined in a scintillation counter.

[4] = treated group, 10 mg/kg/h intravenous infusion, individual rats No. 1-10, 10 mg/kg

Cc1c(C)c2c(c(C)c1O)CCC(C)(C(=O)O)O2 (stereo not drawn) [3,4-dihydro-6-hydroxy-2,5,7,8-tetramethyl-2H-1-benzopyran-2-carboxylic acid]
IC50 [1]: 105 ± 8 µM

Cc1c(C)c2c(c(C)c1O)CCC(C)(CC[N+](C)(C)C)O2 (stereo not drawn) [Example 1, 2-(3,4-Dihydro-6-hydroxy-2,5,7,8-tetramethyl-2H-1-benzo-pyran-2-yl)ethyl-N,N,N-trimethylammonium bromide]
IC50 [1]: 138 ± 14 µM

CC(=O)Oc1c(C)c(C)c2c(c1C)CCC(C)(CC[N+](C)(C)C)O2.[Br-] (stereo not drawn) [Example 2, 2-(3,4-Dihydro-2,5,7,8-tetramethyl-6-methylcarbonyloxy-2H-1-benzopyran-2-yl)ethyl-N,N,N-trimethylammonium bromide]
reduction of infarction ([2]; treated (10 mg/kg/h) versus saline control, statistically significant (ANOVA) at p = 0.02): 42.7% | Ratio % (infarcted tissue / tissue at risk), average ([2]; treated group, 10 mg/kg/h intravenous infusion, average of 10 rats, control group 83.31, 10 mg/kg): 47.8% and 47.75% | Infarcted tissue,mg [2, 4]: 23 mg and 27 mg and 299 mg and 39 mg and 33 mg and 247 mg and 193 mg and 134 mg and 123 mg and 157 mg | Ratio % (infarcted tissue / tissue at risk) [2, 4]: 45.2% and 9.4% and 97.5% and 15.5% and 18.9% and 64.8% and 62.1% and 64.5% and 31.2% and 68.4%

CC(=O)Oc1c(C)c(C)c2c(c1C)CCC(C)(CC[N+](C)(C)C)O2.Cc1ccc(S(=O)(=O)[O-])cc1 (stereo not drawn) [Example 9, 2-(3,4-Dihydro-2,5,7,8-tetramethyl-6-methylcarbonyloxy-2H-1-benzopyran-2-yl)ethyl-N,N,N-trimethylammonium p-toluenesulfonate]
Ratio heart/blood ([3]; 5 min after administration): 3.05 ± 1.46 | ng equiv/g heart ([3]; 5 min after administration): 1.591 ± 0.22 | ng equiv/ml blood ([3]; 5 min after administration): 0.434 ± 0.351 ng equiv/ml blood | Ratio heart/blood ([3]; 15 min after administration): 6.90 ± 8.34 | ng equiv/g heart ([3]; 15 min after administration): 1.728 ± 0.422 | ng equiv/ml blood ([3]; 15 min after administration): 0.590 ± 0.295 ng equiv/ml blood | Ratio heart/blood ([3]; 30 min after administration): 17.33 ± 5.42 | ng equiv/g heart ([3]; 30 min after administration): 1.905 ± 0.278 | ng equiv/ml blood ([3]; 30 min after administration): 0.124 ± 0.032 ng equiv/ml blood | Ratio heart/blood ([3]; 1 hour after administration): 20.09 ± 2.54 | ng equiv/g heart ([3]; 1 hour after administration): 2.092 ± 0.406 | ng equiv/ml blood ([3]; 1 hour after administration): 0.096 ± 0.008 ng equiv/ml blood | Ratio heart/blood ([3]; 2 hours after administration): 21.90 ± 3.56 | ng equiv/g heart ([3]; 2 hours after administration): 1.395 ± 0.042 | ng equiv/ml blood ([3]; 2 hours after administration): 0.086 ± 0.041 ng equiv/ml blood | ng equiv/g heart ([3]; 4 hours after administration): 1.253 ± 0.248 | ng equiv/ml blood ([3]; 4 hours after administration): 0.054 ± 0.013 ng equiv/ml blood | Ratio heart/blood ([3]; 4 hours after administration (maximum), listed as 2-(3,4-dihydro-2,5,7,8-tetramethyl-6-methylcarbonyloxy-2H-1-benzopyranan-2-yl)et, p-toluenesulfonate): 27.15 and 27.15 ± 4.30 | Ratio heart/blood ([3]; 6 hours after administration): 18.62 ± 2.77 | ng equiv/g heart ([3]; 6 hours after administration): 0.863 ± 0.067 | ng equiv/ml blood ([3]; 6 hours after administration): 0.048 ± 0.007 ng equiv/ml blood | Ratio heart/blood ([3]; 8 hours after administration): 15.12 ± 2.69 | ng equiv/g heart ([3]; 8 hours after administration): 0.652 ± 0.116 | ng equiv/ml blood ([3]; 8 hours after administration): 0.048 ± 0.012 ng equiv/ml blood | concentration of drug in heart tissue ([3]; after 8 h): 0.65 µg equiv/g | affinity for heart tissue ([3]; conclusion in words): marked affinity for heart tissue

CC(C)(S)[C@@H](N)C(=O)O [d,1-penicillamine]
IC50 [1]: 73 µM
